# Assay results as given in patent US5965539A, “Inhibitors of prenyl transferases” (Univeristy of Pittsburgh, priority 1996, dated 1999).
# Like-named read-outs stand apart in the source and are kept apart here.
# What was measured:
# H-Ras processing = test: Ras processing assay in H-RasF cells (NIH 3T3 transformed with oncogenic H-Ras-CVLS), immunoblot; format: cell-based; conditions: whole cells; read-out: H-Ras processing IC50
# Method: H-RasF cells (45) were seeded on day 0 in 100 mm Dishes (costar) in Dulbecco's modified Eagles medium (GIBCO) and allowed to grow to 40-60% confluency. […] On day 3, cells were washed one time with ice cold PBS and were collected and lysed by incubation for 30-60 min on ice in lysis buffer (41). Lysates were cleared (14,000 rpm, 4° C., 15 min) and supernatants collected. Equal amounts of lysate were separated on a 12.5% SDS-PAGE, transfered to nitrocellulose, and a western blot performed using a anti-Ras antibody (Y13-238, ATCC) or anti-Rap1A antibody (Santa Cruz Biotechnology, Santa Cruz, Calif.). Antibody reactions were visualized using peroxidase-conjugated goat anti-rat IgG for Y13-238 and peroxidase-conjugated goat anti-rabbit IgG for Rap1A and an enhanced chemiluminescence detection system (ECL; Amersham Corp.)
# H-Ras cells (45) and K-Ras4B Cells (32) were kind gifts from Dr. Channing Der and Dr. Adrienne Cox (University of North Carolina, Chapel Hill). Means of obtaining these cell lines will be easily recognized by the skilled practitioner. Cells were seeded on day 0 in 100 mm dishes in Dulbecco's modified Eagles medium supplemented with 10% calf serum and 1% penicillin-streptomycin. […] On day 3, cells were washed and lysed in lysis buffer containing 50 mM HEPES, pH 7.5, 10 mM NaCl, 1% TX-100, 10% glycerol, 5 mM MgCl2, 1 mM EGTA, 25 μg/ml leupeptin, 2 mM PMSF, 2 mM Na3 VO4, 1 mg/ml soybean trypsin inhibitor, 10 μg/ml aprotinin, 6.4 mg/ml Sigma-104® phosphatase substrate. Lysates were cleared (14,000 rpm, 4° C., 15 min) and equal amounts of protein were separated on a 12.5% SDS-PAGE, transferred to nitrocellulose, and immunoblotted using an anti-Ras antibody (Y13-259, ATCC) or an anti-RapIA antibody (SC-65, Santa Cruz Biotechnology, Santa Cruz, Calif.). Antibody reactions were visualized using either peroxidase-conjugated goat anti-rat 1 gG (for Y13-259), or peroxidase-conjugated goat anti-rabbit 1 gG (for Rap1A) and an enhanced chemiluminescence detection (ECL, Amersham Corp.), as described previously (41).
# FTase [1] = target: T1, FTase (Homo sapiens, UniProt P49356); test: FTase activity assay: transfer of [3H]farnesyl from FPP to recombinant H-Ras-CVLS, Daudi 60,000xg supernatant; format: biochemical; conditions: for GG/F: ratio GGTase I IC50 / FTase IC50; for IC50: read-out: FTase IC50; for Selectivity: FTase over GGTase I
# T1 construct: FTase and GGTase I activities from 60,000×g supernatants of human Burkitt lymphoma (Daudi) cells; endogenous in cells; host or cells: human Burkitt lymphoma (Daudi) cells, 60,000xg supernatant (partially purified)
# Method: FTase and GGTase I activities from 60,000×g supernatants of human Burkitt lymphoma (Daudi) cells (ATCC, Rockville, Md., USA) were assayed as described previously for FTase (41). Briefly, 100 μg of the supernatant was incubated in 50 mM Tris, pH 7.5, 50 μM ZnCl2, 20 mM KCl and 1 mM dithiothreitol (DTT).
# Human Burkitt lymphoma (Daudi) cells (ATCC, Rockville, Md.) were grown in suspension in RPMI 1640 medium containing 10% fetal bovine serum (FBS) and 1% Pen-Strep in a humidified 10% CO2 incubator at 37° C. The cells were harvested and sonicated in 50 mM Tris, pH 7.5, 1 mM EDTA, 1 mM EGTA, 25 μg/ml leupeptin, 1 mM phenylmethylsulfonyl fluoride. Homogenates were then spun at 12,000×g and the resulting supernatant further spun at 60,000×g. The supernatant was assayed for both FTase and GGTase I. Briefly, 100 μg of the supernatants was incubated in 50 mM Tris, pH 7.5, 50 μM ZnCl2, 20 mM KCl, 3 mM MgCl2 and 1 mM DTT. […] FPP (625 nM; 16.3 Ci/mmol). For GGTase assays, the reaction was also incubated for 30 minutes at 37° C. but with recombinant H-Ras-CVLL (5 μM) and [^3 H] GGPP (525 nM; 19.0 Ci/mmol). The reaction was stopped and passed through glass fiber filters to separate free and incorporated label. For inhibition studies, the peptidomimetics were premixed with FTase or GGTase I prior to adding the remainder of the reaction mixture. […] Recombinant H-Ras-CVLL was prepared from bacteria (32).
# FTase and GGTase I activities from 60,000×g supernatants of human Burkitt lymphoma (Daudi) cells (ATCC, Rockville, Md.) were assayed exactly as described previously for FTase (41).
# Ras processing = Ras processing assay in EJ3 / Ras transformed 3T3 cells (FIG. 16A); format: cell-based
# Method: EJ3 cells were treated with peptidomimetics or vehicle for 20-24 h. Cells were lysed in lysis buffer (10 mM Na2 HPO4, pH 7.25, 150 mM NaCl, 0.1% sodium dodecyl sulfate, 1% Triton X-100, 12 mM sodium deoxycholate, 1 mM NaF, 0.2% NaN3, 2 mM PMSF, 25 μg/ml leupeptin) and the lysates were cleared by spinning at 13,000 rpm for 15 minutes. Ras protein was immunoprecipitated overnight at 4° C. with 50 μg of anti-Ras antibody (Y13-259; hybridoma from ATCC, Rockville, Md.) along with 30 μl Protein A-agarose goat anti-rat IgG complex (oncogene Science, Uniondale, N.Y.). Immunoprecipitates were washed 4 times with lysis buffer and the bound proteins were released by heating for 5 minutes in 40 μl SDS-PAGE sample buffer and subsequently electrophoresed on a 12.5% SDS-PAGE.
# GGTase I = target: T2, GGTase I (Homo sapiens, UniProt P53609); test: GGTase I activity assay: transfer of [3H]geranylgeranyl to recombinant H-Ras-CVLL, Daudi 60,000xg supernatant; format: biochemical
# T2 construct: FTase and GGTase I activities from 60,000×g supernatants of human Burkitt lymphoma (Daudi) cells; endogenous in cells; host or cells: human Burkitt lymphoma (Daudi) cells, 60,000xg supernatant (partially purified)
# Method: FTase and GGTase I activities from 60,000×g supernatants of human Burkitt lymphoma (Daudi) cells (ATCC, Rockville, Md., USA) were assayed as described previously for FTase (41). Briefly, 100 μg of the supernatant was incubated in 50 mM Tris, pH 7.5, 50 μM ZnCl2, 20 mM KCl and 1 mM dithiothreitol (DTT). The reaction was incubated at […] for 30 min with recombinant Ha-Ras-CVLS (11 μM) and [^3 H]FPP (625 nM; 16.3 Ci/mmol) for FTase, and recombinant Ha-Ras-CVLL (5 μM) and [^3 H]geranylgeranylpyrophosphate (525 nM; 19.0 Ci/mmol) for GGTase I. The peptidomimetics were mixed with FTase and GGTase before adding to the reaction mixture.
# Human Burkitt lymphoma (Daudi) cells (ATCC, Rockville, Md.) were grown in suspension in RPMI 1640 medium containing 10% fetal bovine serum (FBS) and 1% Pen-Strep in a humidified 10% CO2 incubator at 37° C. The cells were harvested and sonicated in 50 mM Tris, pH 7.5, 1 mM EDTA, 1 mM EGTA, 25 μg/ml leupeptin, 1 mM phenylmethylsulfonyl fluoride. Homogenates were then spun at 12,000×g and the resulting supernatant further spun at 60,000×g. The supernatant was assayed for both FTase and GGTase I. Briefly, 100 μg of the supernatants was incubated in 50 mM Tris, pH 7.5, 50 μM ZnCl2, 20 mM KCl, 3 mM MgCl2 and 1 mM DTT. For FTase assays, the reaction was incubated at 37° C. for 30 minutes with recombinant H-Ras-CVLS (11 μM) and [^3 H] FPP (625 nM; 16.3 Ci/mmol). For GGTase assays, the reaction was also incubated for 30 minutes at 37° C. but with recombinant H-Ras-CVLL (5 μM) and [^3 H] GGPP (525 nM; 19.0 Ci/mmol). The reaction was stopped and passed through glass fiber filters to separate free and incorporated label. For inhibition studies, the peptidomimetics were premixed with FTase or GGTase I prior to adding the remainder of the reaction mixture. Recombinant H-Ras-CVLS was prepared as described previously (26) from bacteria (31). Recombinant H-Ras-CVLL was prepared from bacteria (32).
# FTase and GGTase I activities from 60,000×g supernatants of human Burkitt lymphoma (Daudi) cells (ATCC, Rockville, Md.) were assayed exactly as described previously for FTase (41). Inhibition studies were performed by determining the ability of Ras CAAX peptidomimetics to inhibit the transfer of [^3 H]-farnesyl and [^3 H]-geranylgeranyl from [^3 H]FPP and [^3 H]GGPP to H-ras-CVLS and H-Ras-CVLL, respectively (41).
# Rap1A processing = Rap1A processing assay in EJ3 / Ras transformed 3T3 cells (FIG. 16B); format: cell-based
# Method: For Rap1A processing assays, 50 μg of cell lysates were electrophoresed as described above for Ras processing and transferred to nitrocellulose. These membranes were then blocked with 5% milk in Tris-buffered saline, pH 8.0, containing 0.5% Tween-20 and probed with anti-Rap1A (1 μg/ml in 5% milk/TBS-T; Santa Cruz Biotechnology, Santa Cruz, Calif.). Antibody reactions were visualized using peroxidase-conjugated goat anti-rabbit IgG (Oncogene) and ECL chemiluminescence as described above.
# FTase [2] = target: T1, FTase; test: Peptidomimetics farnesylation assay (silica gel TLC); format: biochemical; conditions: Table 4; substrate for farnesylation, TLC
# Method: The ability of human Burkitt lymphoma (Daudi) FTase to farnesylate peptides and peptidomimetics was determined as described previously (34, 35). Briefly, 25 μl of reaction mixture containing 50 μg of 60,000×g supernatants and 20 μM peptidomimetic in 50 mM Tris, pH 7.5, 50 μM ZnCl2, 20 mM KCl, 3 mM MgCl2, 1 mM DTT and 0.2% octylβ-D-glucoside was incubated for 30 minutes at 37° C., then spotted onto silica gel G TLC sheets (20×20 cm, Brinkmann Instruments), and developed with n-propanol/5 N ammonium hydroxide/water (6:1:1). The dried sheets were sprayed with En^3 Hance (DuPont NEN) and exposed to x-ray film for detection of [^3 H] farnesylated products.
# [3] = Table 1, read-out: GGTase I IC50
# [4] = Table 4, read-out: GGTase-I IC50
# T1 sequence (P49356 whole entry): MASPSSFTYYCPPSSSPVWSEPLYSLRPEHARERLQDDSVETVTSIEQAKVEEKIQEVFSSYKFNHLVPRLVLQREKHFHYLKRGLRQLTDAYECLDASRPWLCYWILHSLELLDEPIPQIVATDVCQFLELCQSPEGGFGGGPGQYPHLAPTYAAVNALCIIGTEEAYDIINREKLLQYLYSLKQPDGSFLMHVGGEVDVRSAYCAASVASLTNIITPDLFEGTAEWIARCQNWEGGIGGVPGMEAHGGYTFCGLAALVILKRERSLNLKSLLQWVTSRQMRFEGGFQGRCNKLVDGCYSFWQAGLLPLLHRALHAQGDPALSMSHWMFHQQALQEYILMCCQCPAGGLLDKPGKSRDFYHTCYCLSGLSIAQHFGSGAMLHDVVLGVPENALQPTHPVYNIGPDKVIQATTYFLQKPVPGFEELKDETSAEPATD
# T2 sequence (P53609 whole entry): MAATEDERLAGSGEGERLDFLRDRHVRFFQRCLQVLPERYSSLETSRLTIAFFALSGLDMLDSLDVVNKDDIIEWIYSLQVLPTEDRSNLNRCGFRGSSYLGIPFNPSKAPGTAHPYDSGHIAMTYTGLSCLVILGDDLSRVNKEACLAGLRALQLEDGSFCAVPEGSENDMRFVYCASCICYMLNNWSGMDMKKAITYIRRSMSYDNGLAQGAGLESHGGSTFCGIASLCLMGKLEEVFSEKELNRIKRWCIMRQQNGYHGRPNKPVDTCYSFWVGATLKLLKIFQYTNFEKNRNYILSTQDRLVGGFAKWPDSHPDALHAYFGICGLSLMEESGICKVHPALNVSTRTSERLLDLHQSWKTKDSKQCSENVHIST
Compound,IC50 (H-Ras processing) [nM],selectivity for FTase over GGTase I (FTase [1]) [fold],GG/F (FTase [1]; Table 1),IC50 (FTase [1]; Table 1) [nM],Selectivity (FTase [1]; Table 4),IC50 (FTase [1]; Table 4) [nM],IC50 (FTase [1]) [nM],IC50 (GGTase I; [3]) [nM],IC50 (GGTase I; [4]) [nM],Substrate (FTase [2]),inhibition of Ras processing (Ras processing; 200 μM),inhibition of Ras processing (Ras processing; FIG. 16A),inhibition of Rap1A processing (Rap1A processing)
"Cc1cccc(-c2ccc(NC[C@@H](N)CS)cc2)c1 [FTI-263, 4-N-[2(R)-Amino-3-mercaptopropyl]amino-3'-methylbiphenyl]",,,,,141,710,,,> 100000,no,,,did not inhibit Rap1A processing
"N[C@@H](CS)CNc1ccc(-c2ccc(C(=O)O)cc2)cc1 [FTI-271, 4-N-[2(R)-Amino-3-mercaptopropyl]amino-4'-carboxybiphenyl]",,,,,,,,,> 100000,no,,,did not inhibit Rap1A processing
"CC[C@H](C)C(=O)O[C@H]1C[C@@H](C)C=C2C=C[C@H](C)[C@H](CC[C@@H]3C[C@@H](O)CC(=O)O3)[C@H]21 [lovastatin, reference compound]",,,,,,,,,,,,inhibited Ras processing,inhibited the processing of Rap1A

# Second part, led by results:
IC50 (H-Ras processing) [nM],selectivity for FTase over GGTase I (FTase [1]) [fold],GG/F (FTase [1]; Table 1),IC50 (FTase [1]; Table 1) [nM],Selectivity (FTase [1]; Table 4),IC50 (FTase [1]; Table 4) [nM],IC50 (FTase [1]) [nM],IC50 (GGTase I; [3]) [nM],IC50 (GGTase I; [4]) [nM],Substrate (FTase [2]),Compound,inhibition of Ras processing (Ras processing; 200 μM),inhibition of Ras processing (Ras processing; FIG. 16A),inhibition of Rap1A processing (Rap1A processing)
100000,15,15,272,15,300,300,3970,4400,,"CSCC[C@H](NC(=O)c1ccc(NC[C@@H](N)CS)cc1)C(=O)O [FTI-249, 4-N-[2(R)-Amino-3-mercaptopropyl]aminobenzoyl methionine]",did not inhibit Ras processing,did not inhibit Ras processing,
,,19,1000,,,,19000,,,"COC(=O)[C@H](CCSC)NC(=O)c1ccc(NC[C@@H](N)CS)cc1 [FTI-254, 4-N-[2(R)-Amino-3-mercaptopropyl]aminobenzoyl methionine methyl ester]",inhibited FTase,,
